According to US20230346820A1, “METHODS AND COMPOSITIONS FOR THE TREATMENT OF SARS-COV-2” (priority 2020, published 2023):
Structures can show the parent of a compound that is named as a salt. Where two headings read alike, the source gives them in different places. Residues, ends and D or L forms follow the SMILES beside them. *: point of attachment. Cbz = O=C(OCc1ccccc1)*; CHN2 = [N-]=[N+]=C*

Assays:
SARS-CoV-2 [1] = test system: SARS-CoV-2
SARS-CoV-2 [2] = settings: read-out: Calu-3 CoV-2 EC50; Table 4; aggregated data, Geomean, n = 3; 48 h
HeLa-ACE2 cells = assay: cells; type: cell-based, human
in vitro = settings: human
SARS-CoV-2 [3] = assay: microbe, parasite or virus in culture
[4] = Homo sapiens, HeLa-ACE2, read-out: HeLa-ACE-2 EC50 [μM] (Geomeans, n ≥ 2)
[5] = CC50 [μM] (Geomeans, n ≥ 2 except where indicated: *n = 1)
[6] = Severe acute respiratory syndrome coronavirus 2, HeLa-ACE2, 24 h, read-out: CoV-2 EC50 [μM] (Geomeans, n ≥ 2)
[7] = Severe acute respiratory syndrome coronavirus 2, HeLa-ACE2, read-out: SARS-CoV-2 EC50

SMILES	EC50 (HeLa-ACE2 cells; [4])	HeLa-ACE2 CC50/CoV-2 EC50 (SARS-CoV-2 [1])	CC50 (in vitro; [5])	EC50 (SARS-CoV-2 [3]; [6])	also measured
COc1ccc(C[C@H]2NC[C@H](O)[C@H]2OC(C)=O)cc1 [ANISOMYCIN]	–	–	–	–	EC50 (SARS-CoV-2 [1]; read-out: HeLa-ACE2 CoV-2 EC50, Table 4, aggregated data, Geomean, n = 3): 0.066 µM; EC50 (SARS-CoV-2 [2]): 0.127 µM
CNCc1ccc(OC)c([C@]2(N3CCC[C@H]3c3ncco3)C(=O)N(S(=O)(=O)c3ccc(OC)cc3)c3ccc(Cl)cc32)c1 [RFM-011-200-5]	4.24 µM	>4.37	> 8.46 µM	1.93 µM	–
C[C@@H](n1cnc2cc(Cl)ccc2c1=O)[C@](O)(Cn1cncn1)c1ccc(F)cc1F [albaconazole]	> 9.59 µM	6.6	> 39.8 µM	> 6.04 µM	–
CC(C)CC(NC(=O)OCc1ccccc1)C(=O)NC(C(=O)NCC(=O)C=[N+]=[N-])C(C)C (stereo not drawn) [Z LVG CHN2] (Cbz-Leu-Val-Gly-CHN2; configuration not given here)	–	>554.29	> 39.8 µM	0.072 µM	–
c1cn2cc(-c3ccc4c(c3)nc3n4CCN4CCCCC4C3)ccc2n1 (stereo not drawn) [Integrity ID 725781]	> 9.59 µM	4.41	> 39.8 µM	> 9.04 µM	–
CCNCc1cc(Nc2ccnc3cc(Cl)ccc23)ccc1O	> 9.59 µM	>16.69	> 20.4 µM	1.22 µM	–
COC(CNCC(C)C)COc1c(C)csc1C(=O)CCc1ccccc1 (stereo not drawn) [LG-6-101]	–	10.3	> 35.6 µM	3.46 µM	–
O=C(CCCN1CCN(c2ccc(F)cc2)CC1)NC1c2ccccc2CSc2ccccc21 (stereo not drawn) [MONATEPIL]	–	>5.01	> 39 µM	> 7.79 µM	–
CC[C@@H](C(=O)O)[C@@H]1O[C@@H]([C@@H](C)[C@H](O)[C@H](C)C(=O)[C@H](CC)[C@H]2O[C@]3(C=C[C@@H](O)[C@]4(CC[C@@](C)([C@H]5CC[C@](O)(CC)[C@H](C)O5)O4)O3)[C@H](C)C[C@@H]2C)[C@@H](C)C[C@@H]1C [Narasin]	5.99 µM	2.31	3.47 µM	1.5 µM	–
COc1ccc(C2(c3ccccc3)NC(=O)N(CCCN3CCC(c4ccccc4)CC3)C2=O)cc1 (stereo not drawn) [ROPITOIN]	> 9.59 µM	5.28	21.5 µM	4.08 µM	–
COc1ccc2nc3cc(Cl)ccc3c(Nc3cc(CN4CCCC4)c(O)c(CN4CCCC4)c3)c2n1 [pyronaridine]	3.41 µM	>4.86	> 7.39 µM	1.52 µM	–
Nc1ncnc2c1nc(Cl)n2[C@@H]1O[C@H](CO)[C@@H](O)[C@H]1O [8-Chloroadenosine]	–	>12.80	> 11.9 µM	0.927 µM	–
COc1ccc(C[C@H](N)C(=O)N[C@H]2[C@@H](O)[C@H](n3cnc4c(N(C)C)ncnc43)O[C@@H]2CO)cc1 [puromycin]	–	–	–	–	EC50 (HeLa-ACE2 cells; Homo sapiens, HeLa-ACE2, read-out: EC50 (total cell numbers per well, toxicity in context of infection)): 0.547 ± 0.027 µM; CC50 (in vitro; HeLa-ACE2 CC50): 2.45 ± 0.23 µM
CCN(CC)Cc1cc(Nc2ccnc3cc(Cl)ccc23)ccc1O [Amodioaquine]	–	>33.48	> 39.8 µM	1.19 µM	–
CN(C)CCC1CCc2cc(OCc3ccc(-c4ccccc4)cc3)ccc2C1 (stereo not drawn) [TAK-070]	> 5.5 µM	7.19	10.1 µM	1.41 µM	–
OCCN1CCN(CC/C=C2\c3ccccc3Sc3ccc(Cl)cc32)CC1 [ZUCLPEN THIXL]	> 9.59 µM	>8.08	> 16.8 µM	2.08 µM	–

SMILES	EC50 (HeLa-ACE2 cells; [4])	HeLa-ACE2 CC50/CoV-2 EC50 (SARS-CoV-2 [1])	CC50 (in vitro; [5])	EC50 (SARS-CoV-2 [3]; [6])	also measured
CN1[C@@H]2CC[C@H]1C[C@@H](N1Cc3ccc4ccccc4c3C1=O)C2 [CR-3124]	–	>6.67	> 39.8 µM	–	–
CCCCCCOC(=O)NC(=N)c1ccc(NCc2nc3cc(C(=O)N(CCC(=O)OCC)c4ccccn4)ccc3n2C)cc1 [Dabigatranetexilate mesilate]	–	>6.50	> 26.5 µM	–	–
CCCCN1CC[C@H](c2ccc(N(C)C)cc2)[C@@H](COc2ccc(C(F)(F)F)cc2)C1 [NNC 090026]	–	>5.59	> 15.4 µM	2.75 µM	CC50 (in vitro; Uninfected HeLa-ACE2 CC50 (μM)): > 15.4 µM; EC50 (SARS-CoV-2 [3]; Severe acute respiratory syndrome coronavirus 2, HeLa-ACE2, read-out: SARS CoV-2 EC50 (μM)): 2.75 µM
O=C(c1ccc(OCCN2CCCCC2)cc1)c1c(-c2ccc(O)cc2)sc2cc(O)ccc12 [raloxifene]	–	–	–	–	EC50 (SARS-CoV-2 [3]; [7]): 4.13 µM
Cc1c(-c2ccc(O)cc2)n(Cc2ccc(OCCN3CCCCCC3)cc2)c2ccc(O)cc12 [bazedoxifene]	–	–	–	–	EC50 (SARS-CoV-2 [3]; [7]): 3.47 µM
Cc1cccc(/C=N/Nc2cc(N3CCOCC3)n3nc(-c4ccncc4)cc3n2)c1 [APY0201]	–	>2853.95	> 39.4 µM	0.014 µM	–
Cc1ccc(C(=O)Nc2ccc(CN3CCN(C)CC3)c(C(F)(F)F)c2)cc1C#Cc1cnc2cccnn12 [Ponatinib]	1.25 µM	–	–	1.61 µM	–
COc1cc(C[C@H]2c3cc(OC)c(OC)cc3CCN2C)c(Oc2cc3c(cc2OC)-c2c(OC)c(OC)cc4c2[C@H](C3)N(C)CC4)cc1OC [Thalicarpine]	> 9.6 µM	>45.67	> 26.6 µM	–	–
OC(CNCC(O)C1CCc2cc(F)ccc2O1)C1CCc2cc(F)ccc2O1 (stereo not drawn) [nebivolol hydrochloride]	–	>3.75	> 11.1 µM	2.96 µM	–
N#Cc1ccc2c(c1)[C@H]1CN(CCCCNC(=O)c3ccc(-c4ccccc4)cc3)C[C@@H]1CO2 [S-33084]	–	>6.34	> 24.8 µM	3.91 µM	–
NC1(C(=O)N[C@@H](CCO)c2ccc(Cl)cc2)CCN(c2nc[nH]c3nccc2-3)CC1 [AZD-5363]	–	–	–	–	EC50 (HeLa-ACE2 cells; read-out: HeLa-ACE-2 EC50 [μM] (Geomeans, n ≥ 2)): > 3.39 µM; EC50 (SARS-CoV-2 [1]; read-out: CoV-2 EC50 [μM] (Geomeans, n ≥ 2), Table 1, HeLa-ACE2, 24 h): > 4.63 µM
CN1C[C@@H]2c3ccccc3Oc3ccc(Cl)cc3[C@H]2C1 (racemic) [Asenapine maleate]	–	–	> 35.6 µM	–	–
CNC(=O)c1cc(Oc2ccc(NC(=O)Nc3ccc(Cl)c(C(F)(F)F)c3)cc2)ccn1 [Sorafenib]	–	>1.52	> 8.65 µM	> 5.67 µM	–
COc1ccc2cc1Oc1ccc(cc1)C[C@H]1c3c(cc4c(c3Oc3cc5c(cc3OC)CCN(C)[C@@H]5C2)OCO4)CCN1C [Cepharanthine]	–	>25.76	> 25.4 µM	–	–
CN(C)CC1=C[CH]([Fe][CH]2C=CC=C2)C=C1CNc1ccnc2cc(Cl)ccc12 (stereo not drawn) [Ferroquine]	–	10.29	13.4 µM	–	–
